Assay results from patent publication US12186327B2, “Oral allopregnanolone compositions and methods of use” (Lipocine Inc., priority 2022, dated 2025).
Values after ≈ are worked out from the molar mass of the structure shown. Where two headings read alike, the source gives them in different places.

How the values were obtained:
[1] = 30 mg capsule, cited from earlier work
[2] = once daily 30 mg capsule, 14 day treatment; cited from earlier work
a1b2g2 GABAA receptor = a1b2g2 GABAA receptor (Homo sapiens, UniProt P14867+P47870); conditions: synaptic GABAA receptor; cited from earlier work
[3] = oral daily doses of 16-24 g for 14 days, human volunteers; cited from earlier work
[4] = Allopregnanolone solubility in SBE-β-CD solution; type: physicochemical; conditions: for solubility: aqueous with cosolvent or surfactant or cyclodextrin
Description: The solubilized fraction of allopregnanolone began to decline, as observed by precipitation, when allopregnanolone concentration was above 8 mg/ml. The amount of allopregnanolone in the cyclodextrin solution can only be enabled by up to about 0.6% w/w loading amount of the composition fill. Moreover, high cyclodextrin amounts required to solubilize allopregnanolone also present safety concerns. In some aspects, the compositions and dosage forms of this invention can comprise higher allopregnanolone loading amounts (>5 mg/ml or 5 mg/g) than ones formulated in non-encapsulated SBE-β-CD or any cyclodextrin solution composition.

[5] = in vivo; cited from earlier work

a1b2g2 GABAA receptor, sequence (P14867 28-456): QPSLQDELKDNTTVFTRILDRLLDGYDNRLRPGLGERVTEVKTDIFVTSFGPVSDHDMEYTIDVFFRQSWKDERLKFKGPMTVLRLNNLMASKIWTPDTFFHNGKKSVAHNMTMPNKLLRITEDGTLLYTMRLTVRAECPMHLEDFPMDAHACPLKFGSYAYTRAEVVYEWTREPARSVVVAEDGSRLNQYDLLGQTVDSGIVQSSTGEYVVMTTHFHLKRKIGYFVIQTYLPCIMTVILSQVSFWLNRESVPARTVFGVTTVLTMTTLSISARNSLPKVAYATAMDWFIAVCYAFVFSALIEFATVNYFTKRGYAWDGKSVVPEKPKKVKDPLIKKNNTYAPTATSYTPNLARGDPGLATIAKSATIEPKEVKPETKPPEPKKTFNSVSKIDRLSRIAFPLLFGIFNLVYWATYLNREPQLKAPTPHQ
a1b2g2 GABAA receptor, sequence (P47870 25-512 limits assumed): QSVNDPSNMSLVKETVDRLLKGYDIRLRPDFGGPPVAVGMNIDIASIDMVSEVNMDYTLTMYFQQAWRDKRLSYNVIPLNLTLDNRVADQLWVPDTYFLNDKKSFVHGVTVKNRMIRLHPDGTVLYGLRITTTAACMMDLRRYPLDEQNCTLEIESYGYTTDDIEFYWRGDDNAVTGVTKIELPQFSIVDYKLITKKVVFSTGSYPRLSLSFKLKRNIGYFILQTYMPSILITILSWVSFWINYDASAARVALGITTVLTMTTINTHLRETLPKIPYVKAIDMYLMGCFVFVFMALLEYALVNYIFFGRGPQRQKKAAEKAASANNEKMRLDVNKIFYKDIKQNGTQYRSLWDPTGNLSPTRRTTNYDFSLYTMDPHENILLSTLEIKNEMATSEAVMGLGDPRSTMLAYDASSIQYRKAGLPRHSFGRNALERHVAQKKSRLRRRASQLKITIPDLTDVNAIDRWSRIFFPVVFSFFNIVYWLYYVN
a1b2g2 GABAA receptor, sequence (P18507 40-475 partner): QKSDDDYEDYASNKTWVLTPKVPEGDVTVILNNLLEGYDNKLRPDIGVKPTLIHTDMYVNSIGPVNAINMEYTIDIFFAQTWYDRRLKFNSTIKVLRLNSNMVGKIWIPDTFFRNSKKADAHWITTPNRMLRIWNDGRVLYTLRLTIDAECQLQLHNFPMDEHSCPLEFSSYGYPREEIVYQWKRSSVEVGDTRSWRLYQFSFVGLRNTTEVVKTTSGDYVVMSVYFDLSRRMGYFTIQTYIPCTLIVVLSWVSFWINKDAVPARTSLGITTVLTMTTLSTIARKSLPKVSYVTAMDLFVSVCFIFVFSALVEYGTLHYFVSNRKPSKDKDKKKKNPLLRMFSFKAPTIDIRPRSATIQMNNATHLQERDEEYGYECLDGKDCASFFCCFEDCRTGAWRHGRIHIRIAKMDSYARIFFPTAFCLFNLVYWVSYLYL

For `C[C@@]1(O)CC[C@H]2[C@H](CC[C@@H]3[C@@H]2CC[C@]2(C)[C@@H](C(=O)Cn4cc(C#N)cn4)CC[C@@H]32)C1` [ZURANOLONE], the Cmax ([1]; single dose with a standard fat meal) is listed as “about 64 ng/ml”, the Cmax ([1]; single dose, fasted condition) is listed as “about 23 ng/ml” and the “efficacy in postpartum depression” value [2] is listed as “acceptable efficacy”. The “less potent than allopregnanolone, based on a1b2g2 Qpatch EC50” value (a1b2g2 GABAA receptor) was “about 33%”.

In the case of hydroxy propyl-β-CD, the digestive problems [3] is listed as “increased incidence of soft stools and diarrhea”.

With `CC(=O)[C@H]1CC[C@H]2[C@@H]3CC[C@H]4C[C@H](O)CC[C@]4(C)[C@H]3CC[C@]12C` [allopregnanolone, 3α-hydroxy-5α-pregnan-20-one] the solubility ([4]; cyclodextrin (SBE-β-CD) solution, read-out: allopregnanolone concentration above which the solubilized fraction declined (precipitation)) was over 8000 µg/mL, the solubility ([4]; in 24% w/v non-encapsulated SBE-β-CD solution, read-out: allopregnanolone solubility) was about 6000 µg/mL (≈ 18.8 mM) and the “loading amount of the composition fill enabled in cyclodextrin solution” value ([4]; cyclodextrin solution) was “up to 0.6 % w/w”. The oral bioavailability [5] was “low”.
